Experimental data: publication PMC9306349, “A Process for the Design and Development of Novel Bone Morphogenetic Protein-7 (BMP-7) Mimetics With an Example: THR-184” (Frontiers in Pharmacology, 2022)
Where two headings read alike, the source gives them in different places. Marks after values point to notes of the source that are not given here. Bridge positions count the residues as written; N and C are the ends. Peptide text beside a SMILES is read from it.

Legend:
[1] = Stability of THR-184 in human plasma with and without ACE inhibitor; assay type: in vitro ADME; settings: compound administered with an ACE inhibitor, read-out: serum half-life
Text: Protease degradation of drug candidates can shorten their in-plasma half-life to the point that therapeutic exposure is severely compromised resulting in loss of efficacy.

[2] = tested on: cancer growth; assay: Preclinical overview: cancer growth
Text: (§1) TABLE 2 THR-184 overview.

[3] = tested on: bleeding time
Text: as §1

[4] = tested on: hemodynamics
Text: as §1

[5] = tested on: wound healing
Text: as §1

[6] = Off-target survey; settings: 114 targets surveyed
Text: as §1

[7] = target: T1, CYP450 1A2 (Homo sapiens, UniProt P05177); assay type: in vitro ADME
T1 sequence (P05177 1-516): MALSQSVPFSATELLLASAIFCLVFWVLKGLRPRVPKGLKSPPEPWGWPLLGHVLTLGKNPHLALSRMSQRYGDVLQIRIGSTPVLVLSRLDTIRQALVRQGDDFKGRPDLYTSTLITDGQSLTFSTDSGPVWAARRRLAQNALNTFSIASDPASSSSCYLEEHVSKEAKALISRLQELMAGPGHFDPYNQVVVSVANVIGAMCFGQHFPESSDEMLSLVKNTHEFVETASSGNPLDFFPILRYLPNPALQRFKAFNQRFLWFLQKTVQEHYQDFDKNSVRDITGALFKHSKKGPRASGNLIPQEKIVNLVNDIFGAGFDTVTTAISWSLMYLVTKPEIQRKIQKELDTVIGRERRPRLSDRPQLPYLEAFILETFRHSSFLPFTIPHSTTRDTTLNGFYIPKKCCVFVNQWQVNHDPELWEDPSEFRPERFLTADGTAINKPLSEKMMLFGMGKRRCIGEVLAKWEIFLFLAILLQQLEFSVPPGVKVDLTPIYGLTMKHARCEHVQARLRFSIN
Text: as §1

[8] = target: CYP450 2C19 (Homo sapiens, UniProt P33261); assay: CYP450 isoform effect; assay type: in vitro ADME
Text: as §1

[9] = target: CYP450 2C9 (Homo sapiens, UniProt P11712); assay: CYP450 isoform effect; assay type: in vitro ADME
Text: as §1

[10] = target: CYP450 2D6 (Homo sapiens, UniProt P10635); assay: CYP450 isoform effect; assay type: in vitro ADME
Text: as §1

[11] = target: CYP450 3A4 (Homo sapiens, UniProt P08684); assay: CYP450 isoform effect; assay type: in vitro ADME
Text: as §1

[12] = tested on: patients having major cardio-vascular surgery requiring the cardiopulmonary pump; assay: Phase II clinical trial NCT01830920, AKI after cardio-vascular surgery with cardiopulmonary pump; assay type: in vivo, human; settings: clinical trial pharmacokinetic data; large variability of C Max and AUC
Text: The objective of the Phase II clinical trial, NCT01830920, ([Thrasos Innovation, Inc, 2013]), was to establish the dose, safety, and preliminary efficacy of THR-184 in a targeted patient population having major cardio-vascular surgery requiring the use of the cardiopulmonary pump The primary outcome of this clinical trial was the proportion of patients who develop AKI according to the KDIGO criteria ([Kidney Disease: Improving Global Outcomes (KDIGO) Acute Kidney Injury Work Group, 2012]). […] Use of urinary creatinine is not part of the KDIGO AKI criteria, but rather it is the urinary output that is part of the AKI definition. […] The clinical trial included serum samples for the analysis of KIM-1 and NGAL as exploratory endpoints, but there are as yet no published results from those samples.
SAE: number of Serious Adverse Events.

[13] = tested on: adult healthy male and female volunteers; settings: ref Himmelfarb et al., 2018, cited from earlier work
Procedure: In the first study, THR-P-427 (SAD), the drug (THR-184) was administered as slow intravenous infusions in a total of 40 adult healthy male and female volunteers. The study drug or placebo was administered once on the morning after a 10-h overnight fast. The solution was administered by slow injection via an indwelling catheter, at an infusion rate of 1 ml/min over 60 min. Five dose levels were studied: 0.3 mg/kg, 1 mg/kg, 3 mg/kg, 6 mg/kg and 10 mg/kg. Adverse events were recorded continuously during the study.

[14] = tested on: adult healthy male and female volunteers; settings: ref Himmelfarb et al., 2018, cited from earlier work; remark: listed apart in the source
Procedure: In the second study, THR-P-428 (MAD), THR-184 was administered as a slow intravenous infusion in a total of 24 adult healthy male and female volunteers, once daily over five consecutive days. THR-184 or the placebo was administered on the morning after a 10-h overnight fast. The solution was administered by slow injection via an indwelling catheter, at an infusion rate of 1 ml/min over 60 min. Three dose levels were studied: 0.3 mg/kg, 1 mg/kg, and 3 mg/kg. Adverse events were recorded continuously during the study.

[15] = cited from earlier work
[16] = tested on: patients having major cardio-vascular surgery requiring the cardiopulmonary pump; settings: ref Himmelfarb et al., 2018, cited from earlier work
[17] = tested on: ectopic bone formation; assay: Rat implant assay of ectopic bone formation; assay type: in vivo; settings: implanted in muscle pocket (Hydrogel or collagen carrier device), implants removed day 14, histology toluidine blue
Procedure: FIGURE 2 Failure of BMP-7 mimetic (THR-123) to induce ectopic bone formation in rat implant assay: This assay is based on the ability of BMP-7 to induce ectopic bone formation in the rat and was carried out as described earlier (The Journal of Biological Chemistry, Vol. 267, pp. 20352-20362,1992) to determine in vivo efficacy of THR-123. Briefly, bovine bone matrix (collagen carrier)/BMP-7 or Hydrogel/BMP-7 or Hydrogel/THR-123, devices (all lyophilized) were implanted in muscle pocket. […] This work was supported by Thrasos Therapeutics.

[18] = occurred equally in placebo and THR-184 treated subjects
[19] = Arm 4 High Dose 0.46/0.02 mg/kg
[20] = Arm 5 Highest Dose 0.46/0.46 mg/kg

CYP450 3A4, sequence (P08684 whole entry, canonical isoform): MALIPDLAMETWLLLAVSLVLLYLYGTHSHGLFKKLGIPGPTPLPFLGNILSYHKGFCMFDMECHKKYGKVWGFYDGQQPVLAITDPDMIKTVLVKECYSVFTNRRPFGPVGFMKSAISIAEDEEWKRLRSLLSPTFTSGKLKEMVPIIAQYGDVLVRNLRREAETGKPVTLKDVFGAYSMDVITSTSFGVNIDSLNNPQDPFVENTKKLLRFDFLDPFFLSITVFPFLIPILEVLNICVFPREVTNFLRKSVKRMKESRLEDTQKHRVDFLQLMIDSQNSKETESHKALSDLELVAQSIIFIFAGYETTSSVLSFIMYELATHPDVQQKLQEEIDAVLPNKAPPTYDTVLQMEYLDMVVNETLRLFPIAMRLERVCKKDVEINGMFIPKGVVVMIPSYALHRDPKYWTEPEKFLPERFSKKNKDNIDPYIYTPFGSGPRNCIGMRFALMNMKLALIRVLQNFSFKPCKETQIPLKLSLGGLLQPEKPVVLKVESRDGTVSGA
CYP450 2C19, sequence (P33261 whole entry, canonical isoform): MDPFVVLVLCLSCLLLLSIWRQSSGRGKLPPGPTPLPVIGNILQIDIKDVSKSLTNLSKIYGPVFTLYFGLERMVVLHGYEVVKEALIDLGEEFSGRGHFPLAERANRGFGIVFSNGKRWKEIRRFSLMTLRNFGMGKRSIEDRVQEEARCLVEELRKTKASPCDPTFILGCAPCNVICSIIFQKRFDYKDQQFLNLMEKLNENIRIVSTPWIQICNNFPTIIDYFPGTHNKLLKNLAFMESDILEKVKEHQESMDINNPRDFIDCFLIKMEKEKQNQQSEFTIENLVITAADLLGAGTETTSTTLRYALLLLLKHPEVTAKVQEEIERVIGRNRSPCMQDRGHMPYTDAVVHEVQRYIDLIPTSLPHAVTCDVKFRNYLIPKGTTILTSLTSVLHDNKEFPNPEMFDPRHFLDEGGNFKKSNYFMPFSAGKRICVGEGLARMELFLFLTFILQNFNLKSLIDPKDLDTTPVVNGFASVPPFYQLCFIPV
CYP450 2C9, sequence (P11712 whole entry, canonical isoform): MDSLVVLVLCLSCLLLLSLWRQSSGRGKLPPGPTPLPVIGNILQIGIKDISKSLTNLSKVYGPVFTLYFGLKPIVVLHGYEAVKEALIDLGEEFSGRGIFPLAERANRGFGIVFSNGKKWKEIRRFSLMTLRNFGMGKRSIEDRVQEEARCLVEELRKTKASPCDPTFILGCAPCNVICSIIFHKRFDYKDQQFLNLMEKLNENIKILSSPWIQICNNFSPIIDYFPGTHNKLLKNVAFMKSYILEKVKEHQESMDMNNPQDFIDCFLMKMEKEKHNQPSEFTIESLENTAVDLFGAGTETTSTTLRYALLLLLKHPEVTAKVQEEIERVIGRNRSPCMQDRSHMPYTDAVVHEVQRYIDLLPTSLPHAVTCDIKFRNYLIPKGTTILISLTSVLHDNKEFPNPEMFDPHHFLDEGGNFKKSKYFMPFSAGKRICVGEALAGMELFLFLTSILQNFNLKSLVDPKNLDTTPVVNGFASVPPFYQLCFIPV
CYP450 2D6, sequence (P10635 whole entry, canonical isoform): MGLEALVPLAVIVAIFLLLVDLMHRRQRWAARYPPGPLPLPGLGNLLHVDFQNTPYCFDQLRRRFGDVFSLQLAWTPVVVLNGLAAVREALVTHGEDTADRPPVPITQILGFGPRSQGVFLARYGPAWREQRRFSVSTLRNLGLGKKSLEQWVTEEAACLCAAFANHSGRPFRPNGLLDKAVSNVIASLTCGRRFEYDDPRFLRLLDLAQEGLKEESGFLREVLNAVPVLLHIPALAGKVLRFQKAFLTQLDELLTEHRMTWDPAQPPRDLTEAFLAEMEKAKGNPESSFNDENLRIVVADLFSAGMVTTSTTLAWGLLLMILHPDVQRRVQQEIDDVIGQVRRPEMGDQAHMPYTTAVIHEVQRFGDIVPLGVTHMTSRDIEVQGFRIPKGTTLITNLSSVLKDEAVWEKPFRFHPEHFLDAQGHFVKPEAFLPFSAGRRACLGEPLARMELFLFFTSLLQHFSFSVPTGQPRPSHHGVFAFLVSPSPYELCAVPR

For `CC(C)C[C@@H]1NC(=O)[C@H](C(C)C)NC(=O)[C@H](CO)NC(=O)[C@H](CO)NC(=O)[C@H](CO)NC(=O)[C@H](CC(N)=O)NC(=O)[C@H](CC(=O)O)NC(=O)[C@H](Cc2ccc(O)cc2)NC(=O)[C@H](Cc2ccc(O)cc2)NC(=O)[C@@H](N)CSSC[C@@H](C(=O)N[C@@H](CCCCN)C(=O)N[C@@H](CCCNC(=N)N)C(=O)N[C@@H](Cc2ccc(O)cc2)C(=O)N[C@@H](CCCNC(=N)N)C(=O)N[C@@H](CO)C(=O)O)NC1=O` [THR-184] (H-CYYDNSSSVLCKRYRS-OH; disulfide 1-11), the half-life [1] was 1 h, the cancer growth [2] was “Does not promote cancer growth” and the bleeding time [3] was “Does not affect bleeding time”. The hemodynamics [4] was “Does not affect hemodynamics”, the wound healing [5] was “Does not inhibit wound healing” and the off-target interactions [6] was “Has no off-target interactions (114 targets surveyed)”. The “effect on CYP450 1A2” value [7] was “Has no effect on key CYP450 isoforms (1A2, 2C19, 2C9, 2D6, 3A4)”, the “effect on CYP450 2C19” value [8] was “Has no effect on key CYP450 isoforms (1A2, 2C19, 2C9, 2D6, 3A4)” and the “effect on CYP450 2C9” value [9] was “Has no effect on key CYP450 isoforms (1A2, 2C19, 2C9, 2D6, 3A4)”. The “effect on CYP450 2D6” value [10] was “Has no effect on key CYP450 isoforms (1A2, 2C19, 2C9, 2D6, 3A4)”, the “effect on CYP450 3A4” value [11] was “Has no effect on key CYP450 isoforms (1A2, 2C19, 2C9, 2D6, 3A4)” and the “relationship of dose to serum levels” value [12] was “clear relationship of the dose to serum levels of the compound”. The “most frequently observed adverse event” value [13, 18] was “headache”, the serious adverse events ([13]; single 60 min iv infusion, 0.3-10 mg/kg, healthy volunteers) was “no serious adverse events observed” and the serious adverse events ([14]; 60 min iv infusion once daily for five days, 0.3-3 mg/kg, healthy volunteers) was “no serious adverse events observed”. For the same molecule, the “most frequently observed adverse event” value [14, 18] was “somnolence”, the “Human Plasma Stability: t1/2” value [15] was 6 min and the Deaths ([16]; Arm 2 Low Dose 0.02/0.02 mg/kg) was 4 #. The “SAE > 1 (Serious Adverse Events)” value ([16]; Arm 2 Low Dose 0.02/0.02 mg/kg) was 46.7%, the Deaths ([16]; Arm 3 Mid Dose 0.12/0.02 mg/kg) was 5 # and the “SAE > 1 (Serious Adverse Events)” value ([16]; Arm 3 Mid Dose 0.12/0.02 mg/kg) was 59.6%. The Deaths [16, 19] was 4 #, the “SAE > 1 (Serious Adverse Events)” value [16, 19] was 42.0% and the Deaths [16, 20] was 5 #. For the same molecule, the “SAE > 1 (Serious Adverse Events)” value [16, 20] was 41.0%.

B1: BMP-7: Bone Morphogenetic Protein-7, positive control in rat implant assay (protein, UniProt P18075 293-431, looked up)
Bone morphogenetic protein 7: STGSKQRSQNRSKTPKNQEALRMANVAENSSSDQRQACKKHELYVSFRDLGWQDWIIAPEGYAAYYCEGECAFPLNSYMNATNHAIVQTLVHFINPETVPKPCCAPTQLNAISVLYFDDSSNVILKKYRNMVVRACGCH
With B1 the ectopic bone formation [17] was “induced bone formation”.
